From patent publication US8034756B2, “Formulations with unexpected cleaning performance incorporating a biodegradable chelant” (Dow Global Technologies LLC, priority 2006, dated 2011)
Entries after “also recorded” stand apart in the source; their conditions may differ.

Key:
[1] = overall constant, log of [metal complex]/([free metal][free ligand]); cited from earlier work
[2] = overall constant, log of [metal complex]/([free metal][free ligand]); cited from earlier work; remark: listed apart in the source
[3] = overall constant, log of [metal complex]/([free metal][free ligand]); cited from earlier work; remark: listed apart in the source
[4] = Calcium oxalate titration; type: physicochemical; conditions: pH about 11.6; titrated with 0.5 M CaCl2 to first faint permanent turbidity
Excerpt: The primary metal present in the standard ASTM soil is calcium. One method of estimating the calcium control performance of a chelating agent is to perform a calcium titration that utilizes the tendency to produce a calcium precipitate when a given amount of chelant can no longer control any additional added calcium, thus producing a visible precipitate. Using such a titration test, one normally deems the best chelants for calcium control as those that accept the most calcium before the precipitate appears per a given unit of chelating agent. A standard titration test often employed to determine a chelant's calcium control effectiveness is the calcium oxalate titration. In this titration, standard calcium chloride titrant is added to a measured amount of chelating agent and the onset of calcium oxalate precipitate (detected as the first permanent turbidity that forms) defines the amount of calcium that can be controlled. Strong chelants accept a mole-for-mole amount of calcium, while weaker chelants will accept less than a mole-for-mole amount of calcium in this titration. […]

[5] = Standard laboratory biodegradation tests (OECD 301A, 301B, 301D, 301E, 306); conditions: 301E and OECD 306 seawater test
Excerpt: The above Log K values show the dramatically greater chelation strength of EDTA as compared to HEIDA. One would expect that the chelating agent with the greatest metal ion affinity (in this case, EDTA) would have the better performance for removing the soil containing Ca, Mg, and Fe3+.

[6] = CSMA DCC-16 scrubber test for removal of lime soap (panel rating); conditions: panel scale 0 to 5; 1 gram cleaning solution, 30 seconds, 6 cycles at 454 grams of force; formulation with 3.2% chelant salt
Excerpt: Black ceramic tiles (meeting ANSI standard A371.1, 4¼″ square) are soiled as directed by the procedure described in […] Specialties Manufacturers Association DCC-16, (CSMA Detergents Division Test Methods Compendium—Third Edition—May 1995—Pages I-51 to I-55) “Guidelines for Evaluating the Efficacy of Bathroom Cleaners, Part 2: Scrubber Test for Measuring the Removal of Lime Soap.”. The principal metals present in the soil mixture used in the tile cleaning test are calcium, followed by magnesium, present as their highly insoluble stearate salts (soap scum). Cleaning solution formulations are prepared as described in the previous example. To the surface of the soiled tiles on the scrubbing apparatus, 1 gram of cleaning solution is sprayed and allowed to stand for 30 seconds. The tile is then scrubbed with a pre-moistened sponge with 454 grams of force for 6 cycles (total of 12 passes over the soiled tile). The tile is then rinsed with water and allowed to air dry. Panelists judge the cleanliness of the tiles on a scale from 0 to 5 (with “0” for completely dirty and “5” for completely cleaned), and the results of the observations are averaged.

[7] = ASTM D5343 cleaning performance of ceramic tile cleaners (number of strokes); conditions: ASTM D5343 tile cleaning test
Method: Cleaning formulations are prepared to contain the following (by weight): 2.62% Sodium dodecylbenzene sulfonic acid, 2.62% cocoamidopropyl betaine (Lonzaine C), 2.62% ethylene glycol butyl ether (Dowanol EB™), 3.2% of the chelant salt (except for the blank, which contains all components except the chelant), and the balance water. Thus the formulation of Example 31 contains 3.2% by weight of the chelant salt (in this case, K2HEIDA), and so on for Examples 32 and 33 which evaluate (K)1.8(Na)0.2(HEIDA), and (K)1.6(Na)0.4(HEIDA), respectively, as well as Comparative Examples 27-30 which evaluate the formulations containing Na4EDTA, Na2HEIDA, K4EDTA, and (K)1.0(Na)1.0(HEIDA), respectively.
The cleaning ability of these compositions is determined according to ASTM D5343, “Standard Guide for Evaluating Cleaning Performance of Ceramic Tile Cleaners:” using soiled white bathroom tiles as directed by the procedure. […] 10 ml of the cleaning formulation is placed on the face of a pre-moistened sponge, then the number of strokes (under 454 grams of force) are determined to achieve soil removal of 90% or greater. The number of strokes required by each formulation to obtain 90% or greater soil removal is recorded for each cleaning formulation.

| biodegradability [5] | SMILES | Log K Mg [1] | Log K Fe3+ [2] | Log K Ca [3] | % Molar Chelation of calcium (max. = 100) [4] | Cleaning rating (higher is better) [6] | cleaning performance compared in words [7] |
| --- | --- | --- | --- | --- | --- | --- | --- |
|  | O=C(O)CN(CCN(CC(=O)O)CC(=O)O)CC(=O)O [EDTA, ethylene diamine tetraacetate] | 8.7 | 25.1 | 10.7 | 100% |  |  |
| readily biodegradable | O=C([O-])CN(CCO)CC(=O)[O-].[K+].[K+] [Example K2HEIDA] |  |  |  |  | 4.67 (+/−0.26) | equal performance; also recorded: performs equally as well as K4EDTA |
|  | O=C([O-])CN(CCN(CC(=O)[O-])CC(=O)[O-])CC(=O)[O-].[K+].[K+].[K+].[K+] [Example K4EDTA] |  |  |  |  | 3.60 (+/−0.13) |  |
